Test results published in patent US20210038607A1, “OXADIAZOLYLTHIOPHENE DERIVATIVES USEFUL AS HISTONE DEACETYLASE INHIBITORS” (Karus Therapeutics Limited, priority 2018, published 2021).

Columns and labels:
Human HDAC8 = target: T1, Human HDAC8 (Homo sapiens, UniProt Q9BY41); experiment: HDAC8 biochemical assay, AMC-labeled peptide substrate; settings: read-out: HDAC Isoform IC50 (nM) 8
T1 construct: full length with C-terminal His tag, MW=42.6 kDa; His (C); host or cells: baculovirus expression system
T1 sequence (Q9BY41 1-377): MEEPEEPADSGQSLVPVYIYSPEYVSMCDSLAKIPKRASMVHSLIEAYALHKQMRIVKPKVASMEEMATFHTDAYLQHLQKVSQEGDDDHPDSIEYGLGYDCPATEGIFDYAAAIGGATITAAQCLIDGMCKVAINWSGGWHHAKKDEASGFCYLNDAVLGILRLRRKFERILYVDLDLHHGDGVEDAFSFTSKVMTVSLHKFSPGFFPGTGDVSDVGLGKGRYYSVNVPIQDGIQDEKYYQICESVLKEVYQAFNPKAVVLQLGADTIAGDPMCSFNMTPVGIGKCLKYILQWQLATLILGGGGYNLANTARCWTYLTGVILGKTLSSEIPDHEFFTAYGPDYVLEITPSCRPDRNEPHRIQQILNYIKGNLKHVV
Experimental: (§1) Activity against all zinc-dependent HDACs 1 to 11 was assessed by using an acetylated AMC-labeled peptide substrate. The substrate RHKK(Ac)AMC was used for HDAC1, HDAC2, HDAC3, HDAC6 and HDAC10; the substrate used for HDAC8 was RHK(Ac)K(Ac)AMC. Activity against the class IIa HDACs (HDAC4, 5, 7, 9) and HDAC11 was determined using a class IIa-specific substrate, BOC-Lys(trifluoroacetyl)-AMC (“Trifluoroacetyl Lysine”; see Lahm et al, 2007, PNAS, 104, 17335-17340). All assays were based on the AMC-labeled substrate and developer combination.
(§2) The protocol involved a two-step reaction: first, the substrate with the acetylated lysine side chain is incubated with a sample containing HDAC activity, to produce the deacetylated products, which are then digested in the second step by the addition of developer to produce the fluorescent signal proportional to the amount of deacetylated substrates.
Human HDAC8 (GenBankAccession No. NM_018486), full length with C-terminal His tag, MW=42.6 kDa, expressed in a baculovirus expression system.
(§3) Assay Buffer: 50 mM Tris-HCl, pH8.0, 137 mM NaCl, 2.7 mM KCl, 1 mM MgC2. Before use, 1 mg/mL BSA and DMSO are added.
HDAC8: 1 ng/ul HDAC8 and 100 µM HDAC8 substrate are in the reaction buffer with 1% DMSO final. Incubate for 2 hours at 30° C.
(§4) Stage 1: Deacetylation of substrate by incubation of HDAC enzymes with compounds
(§5) Stage 2: Development by addition of Developer to digest the deacetylated substrate, and generate the fluorescent colour; Detection: 360/460 Ex/Em

[1] = target: T2, Complex of human HDAC3 and human NCOR2 (Homo sapiens, UniProt O15379); experiment: HDAC3 biochemical assay, AMC-labeled peptide substrate; settings: read-out: HDAC Isoform IC50 (nM) 3
T2 construct: full length with C-terminal His tag, MW=49.7 kDa; His (C); host or cells: baculovirus expression system (co-expressed)
T2 sequence (O15379 whole entry, canonical isoform): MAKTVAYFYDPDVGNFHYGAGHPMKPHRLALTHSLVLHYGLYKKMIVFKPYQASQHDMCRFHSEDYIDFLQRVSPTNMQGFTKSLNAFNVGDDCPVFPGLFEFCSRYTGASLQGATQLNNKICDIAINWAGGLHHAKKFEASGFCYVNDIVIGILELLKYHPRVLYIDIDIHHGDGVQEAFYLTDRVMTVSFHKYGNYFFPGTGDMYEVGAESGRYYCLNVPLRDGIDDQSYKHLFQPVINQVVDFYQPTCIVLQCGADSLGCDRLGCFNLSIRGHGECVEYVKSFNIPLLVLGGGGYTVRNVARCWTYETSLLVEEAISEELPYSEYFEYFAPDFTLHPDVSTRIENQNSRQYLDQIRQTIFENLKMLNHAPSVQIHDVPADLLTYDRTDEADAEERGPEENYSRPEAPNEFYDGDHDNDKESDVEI
T2 sequence (Q9Y618 395-489 partner limits assumed): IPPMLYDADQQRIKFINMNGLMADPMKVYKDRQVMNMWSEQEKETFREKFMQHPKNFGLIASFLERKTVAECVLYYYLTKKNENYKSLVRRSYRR
Experimental: as §1, §2
Complex of human HDAC3 (GenBank Accession No. NM_003883), full length with C-terminal His tag, MW=49.7 kDa, and human NCOR2 (amino acid 395-489) (GenBank Accession No. NM_006312), N-terminal GST tag, MW=37.6 kDa, co-expressed in baculovirus expression system.
as §3
HDAC3: 0.1 ng/ul HDAC3 and 50 μM HDAC substrate are in the reaction buffer with 1% DMSO final. Incubate for 1 hour at 30° C.
as §4, §5

Human HDAC2 = target: T3, Human HDAC2 (Homo sapiens, UniProt Q92769); experiment: HDAC2 biochemical assay, AMC-labeled peptide substrate; settings: read-out: HDAC Isoform IC50 (nM) 2
T3 construct: full length with C-terminal GST-tag; GST (C); host or cells: baculovirus expression system
T3 sequence (Q92769 whole entry, canonical isoform): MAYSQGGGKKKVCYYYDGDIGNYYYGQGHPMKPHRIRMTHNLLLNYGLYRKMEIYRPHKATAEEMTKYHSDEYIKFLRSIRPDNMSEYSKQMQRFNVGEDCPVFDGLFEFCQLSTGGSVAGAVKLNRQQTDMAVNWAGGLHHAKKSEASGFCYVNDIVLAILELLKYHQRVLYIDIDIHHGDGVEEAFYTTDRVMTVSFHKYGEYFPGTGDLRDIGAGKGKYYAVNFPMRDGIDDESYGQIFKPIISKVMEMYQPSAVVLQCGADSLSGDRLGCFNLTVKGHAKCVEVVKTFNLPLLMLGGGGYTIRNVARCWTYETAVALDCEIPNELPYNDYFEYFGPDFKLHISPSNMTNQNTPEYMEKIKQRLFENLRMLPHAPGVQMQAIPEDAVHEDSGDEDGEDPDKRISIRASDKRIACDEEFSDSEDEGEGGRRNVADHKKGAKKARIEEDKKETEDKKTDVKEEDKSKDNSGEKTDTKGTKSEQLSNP
Experimental: as §1, §2
Human HDAC2 (GenBank Accession No. NM_001527), full length with C-terminal GST-tag, MW=82.9 kDa, expressed inbaculovirus expression system.
as §3
HDAC2: 0.07 ng/ul HDAC2 and 50 μM HDAC substrate are in the reaction buffer with 1% DMSO final. Incubate for 1 hour at 30° C.
as §4, §5

Human HDAC4 = target: T4, Human HDAC4 (Homo sapiens, UniProt P56524); experiment: HDAC4 biochemical assay, class IIa-specific substrate; settings: read-out: HDAC Isoform IC50 (nM) 4
T4 construct: amino acids 627-1085 with N-terminal GST tag; GST (N); host or cells: baculovirus expression system
T4 sequence (P56524 627-1084 limits assumed): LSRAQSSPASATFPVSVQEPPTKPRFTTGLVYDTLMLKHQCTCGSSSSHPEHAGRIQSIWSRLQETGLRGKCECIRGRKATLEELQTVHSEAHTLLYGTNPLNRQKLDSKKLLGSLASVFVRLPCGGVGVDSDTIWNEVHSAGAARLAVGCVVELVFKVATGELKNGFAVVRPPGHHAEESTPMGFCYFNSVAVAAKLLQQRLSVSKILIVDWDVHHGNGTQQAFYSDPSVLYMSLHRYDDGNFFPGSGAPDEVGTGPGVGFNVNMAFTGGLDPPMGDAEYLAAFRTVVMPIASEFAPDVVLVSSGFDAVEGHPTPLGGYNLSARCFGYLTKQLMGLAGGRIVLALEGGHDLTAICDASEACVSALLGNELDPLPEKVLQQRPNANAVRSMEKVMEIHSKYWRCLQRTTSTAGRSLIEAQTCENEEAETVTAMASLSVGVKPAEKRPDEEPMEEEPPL
Summary of the method: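 Two-step fluorogenic read-out: deacetylated BOC-Lys(trifluoroacetyl)-AMC (50 μM) was digested by developer and measured at Ex/Em 360/460. Deacetylation by 0.004 ng/ul HDAC4 (aa 627-1085, N-terminal GST) ran 30 min at room temperature, pH 8.0 Tris buffer, 1 mg/mL BSA, 1% DMSO.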

Human HDAC5 = target: T5, Human HDAC5 (Homo sapiens, UniProt Q9UQL6); experiment: HDAC5 biochemical assay, class IIa-specific substrate; settings: read-out: HDAC Isoform IC50 (nM) 5
T5 construct: full length with C-terminal His tag, MW=51.1 kDa; His (C); host or cells: baculovirus expression system
T5 sequence (Q9UQL6 656-1122 limits assumed): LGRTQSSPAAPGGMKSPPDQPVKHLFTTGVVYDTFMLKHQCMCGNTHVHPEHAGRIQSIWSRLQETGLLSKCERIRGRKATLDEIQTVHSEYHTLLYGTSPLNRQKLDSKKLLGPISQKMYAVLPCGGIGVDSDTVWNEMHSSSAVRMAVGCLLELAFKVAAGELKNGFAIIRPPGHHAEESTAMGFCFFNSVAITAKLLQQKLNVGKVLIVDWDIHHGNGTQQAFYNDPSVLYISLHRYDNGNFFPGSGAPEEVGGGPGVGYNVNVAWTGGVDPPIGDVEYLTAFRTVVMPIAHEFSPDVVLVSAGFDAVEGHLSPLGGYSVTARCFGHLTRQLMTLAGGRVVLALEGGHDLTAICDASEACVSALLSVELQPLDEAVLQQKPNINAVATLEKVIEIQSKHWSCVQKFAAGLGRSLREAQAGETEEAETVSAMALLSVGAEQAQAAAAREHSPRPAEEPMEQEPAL
Summary of the method: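 Two-step fluorogenic read-out: deacetylated trifluoroacetyl-lysine AMC substrate (50 μM) digested by developer, measured at Ex/Em 360/460. Deacetylation step: 0.05 ng/ul His-tagged full-length baculoviral enzyme with compound, 30 min, room temperature, pH 8.0 Tris with 1 mg/mL BSA and 1% DMSO.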

Human HDAC9 = target: T6, Human HDAC9 (Homo sapiens, UniProt Q9UKV0); experiment: HDAC9 biochemical assay, class IIa-specific substrate; settings: read-out: HDAC Isoform IC50 (nM) 9
T6 construct: amino acids 604-1066 with C-terminal His tag; His (C); host or cells: baculovirus expression system
T6 sequence (Q9UKV0 604-1066 isoform Q9UKV0-5): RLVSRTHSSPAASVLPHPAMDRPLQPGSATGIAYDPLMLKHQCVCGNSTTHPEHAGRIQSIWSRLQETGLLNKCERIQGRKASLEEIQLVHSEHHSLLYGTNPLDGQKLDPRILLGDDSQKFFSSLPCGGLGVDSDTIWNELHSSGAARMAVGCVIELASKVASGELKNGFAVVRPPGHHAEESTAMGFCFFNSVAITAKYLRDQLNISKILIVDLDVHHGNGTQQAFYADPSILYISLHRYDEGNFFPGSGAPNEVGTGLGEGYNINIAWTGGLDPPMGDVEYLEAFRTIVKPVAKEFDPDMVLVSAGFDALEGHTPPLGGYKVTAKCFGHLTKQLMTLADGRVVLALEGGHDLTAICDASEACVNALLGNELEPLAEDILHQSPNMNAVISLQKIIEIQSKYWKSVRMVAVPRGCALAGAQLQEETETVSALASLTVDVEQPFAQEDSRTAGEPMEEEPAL
Summary of the method: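 HDAC9 residues 604-1066 (C-terminal His tag, baculovirus-expressed) at 0.06 ng/ul with 50 μM class IIa substrate Boc-Lys(trifluoroacetyl)-AMC in Tris-HCl pH 8.0 buffer with BSA and 1% DMSO. 30 min at room temperature, then developer added; fluorescence read at 360/460 nm Ex/Em.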

Compound	IC50 (Human HDAC8) [nM]	IC50 [1] [nM]	IC50 (Human HDAC2) [nM]	IC50 (Human HDAC4) [nM]	IC50 (Human HDAC5) [nM]	IC50 (Human HDAC9) [nM]
CN(C)C1CN(C(=O)c2cnnc(N(Cc3ccc(-c4noc(C(F)(F)F)n4)s3)c3cnccn3)c2)C1 [Example FX, 5-[3-(Dimethylamino)azetidine-1-carbonyl]-N-(pyrazin-2-yl)-N-({5-[5-(trifluoromethyl)-1,2,4-oxadiazol-3-yl]thiophen-2-yl}methyl)pyridazin-3-amine]	≤ 10000	> 10000	> 10000	≤ 10000	≤ 10000	≤ 10000
O=C(c1cnnc(N(Cc2ccc(-c3noc(C(F)(F)F)n3)s2)c2cnccn2)c1)N1CC(C(F)(F)F)C1 [Example GJ, N-(Pyrazin-2-yl)-N-({5-[5-(trifluoromethyl)-1,2,4-oxadiazol-3-yl]thiophen-2-yl}methyl)-5-[3-(trifluoromethyl)azetidine-1-carbonyl]pyridazin-3-amine]	≤ 10000	≤ 10000	> 10000	≤ 1000	≤ 10000	≤ 10000
FC(F)(F)c1nc(-c2ccc(CN(c3ccccn3)c3ccccn3)s2)no1 [Example U, N-(Pyridin-2-yl)-N-({5-[5-(trifluoromethyl)-1,2,4-oxadiazol-3-yl]thiophen-2-yl}methyl)pyridin-2-amine]	> 10000	> 10000	> 10000	≤ 10000	≤ 10000	≤ 10000
O=C(c1cnnc(N(Cc2ccc(-c3noc(C(F)(F)F)n3)s2)c2cnccn2)c1)N1C2CCC1COC2 [Example GB, 5-{3-Oxa-8-azabicyclo[3.2.1]octane-8-carbonyl}-N-(pyrazin-2-yl)-N-({5-[5-(trifluoromethyl)-1,2,4-oxadiazol-3-yl]thiophen-2-yl}methyl)pyridazin-3-amine]	≤ 10000	> 10000	> 10000	≤ 10000	≤ 1000	≤ 10000
O=C(c1cnnc(N(Cc2ccc(-c3noc(C(F)(F)F)n3)s2)c2cnccn2)c1)N1CC(C(F)F)C1 [Example GK, 5-[3-(Difluoromethyl)azetidine-1-carbonyl]-N-(pyrazin-2-yl)-N-({5-[5-(trifluoromethyl)-1,2,4-oxadiazol-3-yl]thiophen-2-yl}methyl)pyridazin-3-amine]	≤ 10000	≤ 10000	> 10000	≤ 1000	≤ 1000	≤ 10000
O=C(c1cnnc(N(Cc2ccc(-c3noc(C(F)(F)F)n3)s2)c2cnccn2)c1)N1CC(O)(C(F)(F)F)C1 [Example GD, 1-{6-[(Pyrazin-2-yl)({5-[5-(trifluoromethyl)-1,2,4-oxadiazol-3-yl]thiophen-2-yl}methyl)amino]pyridazine-4-carbonyl}-3-(trifluoromethyl)azetidin-3-ol]	≤ 10000	≤ 10000	> 10000	≤ 10000	≤ 1000	≤ 10000
O=C(c1ccc(N(Cc2ccc(-c3noc(C(F)(F)F)n3)s2)c2cnccn2)nn1)N1CCCC1 [Example FI, N-(Pyrazin-2-yl)-6-(pyrrolidine-1-carbonyl)-N-({5-[5-(trifluoromethyl)-1,2,4-oxadiazol-3-yl]thiophen-2-yl}methyl)pyridazin-3-amine]	≤ 1000	≤ 10000	> 10000	≤ 500	≤ 500	≤ 1000
O=C(c1cnnc(N(Cc2ccc(-c3noc(C(F)(F)F)n3)s2)c2cnccn2)c1)N1CC[S+]([O-])CC1 [Example FU, 4-{6-[(Pyrazin-2-yl)({5-[5-(trifluoromethyl)-1,2,4-oxadiazol-3-yl]thiophen-2-yl}methyl)amino]pyridazine-4-carbonyl}-1lambda4-thiomorpholin-1-one]	≤ 10000	> 10000	> 10000	≤ 10000	≤ 1000	≤ 10000
Cc1cnc(N(Cc2ccc(-c3noc(C(F)(F)F)n3)s2)c2cnccn2)cn1 [Example BH, 5-Methyl-N-(pyrazin-2-yl)-N-({5-[5-(trifluoromethyl)-1,2,4-oxadiazol-3-yl]thiophen-2-yl}methyl)pyrazin-2-amine]	≤ 10000	> 10000	> 10000	≤ 1000	≤ 1000	≤ 10000

Further lines, results first:

IC50 (Human HDAC8) [nM]	IC50 [1] [nM]	IC50 (Human HDAC2) [nM]	IC50 (Human HDAC4) [nM]	IC50 (Human HDAC5) [nM]	IC50 (Human HDAC9) [nM]	Compound
≤ 10000	> 10000	> 10000	≤ 1000	≤ 1000	≤ 10000	FC(F)(F)c1nc(-c2ccc(CN(c3cnccn3)c3cnccn3)s2)no1 [Example BA, N-(Pyrazin-2-yl)-N-({5-[5-(trifluoromethyl)-1,2,4-oxadiazol-3-yl]thiophen-2-yl}methyl)pyrazin-2-amine]
≤ 10000	> 10000	> 10000	≤ 1000	≤ 1000	≤ 10000	FC(F)(F)c1nc(-c2ccc(CN(c3cnccn3)c3cc(CN4CCCC4)ccn3)s2)no1 [Example GG, N-{4-[(Pyrrolidin-1-yl)methyl]pyridin-2-yl}-N-({5-[5-(trifluoromethyl)-1,2,4-oxadiazol-3-yl]thiophen-2-yl}methyl)pyrazin-2-amine]
≤ 10000	> 10000	> 10000	≤ 10000	≤ 10000	≤ 10000	FC(F)(F)c1nc(-c2ccc(CN(c3cnccn3)c3cc(CN4CCOCC4)ccn3)s2)no1 [Example GI, N-{4-[(Morpholin-4-yl)methyl]pyridin-2-yl}-N-({5-[5-(trifluoromethyl)-1,2,4-oxadiazol-3-yl]thiophen-2-yl}methyl)pyrazin-2-amine]
≤ 10000	> 10000	> 10000	≤ 10000	≤ 10000	≤ 10000	Fc1ccnc(N(Cc2ccc(-c3noc(C(F)(F)F)n3)s2)c2cnccn2)c1 [Example AG, N-(4-Fluoropyridin-2-yl)-N-({5-[5-(trifluoromethyl)-1,2,4-oxadiazol-3-yl]thiophen-2-yl}methyl)pyrazin-2-amine]
